Tests used:
Assay in all cases: Test B pre-/postemergence plant response
Assay type in all cases: in vivo
[1] = test system: cocklebur (Xanthium strumarium); settings: for Cocklebur plant response rating: 8 g ai/ha
How it was run: (§1)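 Visual scoring from 0 (no effect) to 100 (complete control) against untreated controls was done 13 to 15 days after greenhouse treatment. Chemicals were formulated in a surfactant-containing non-phytotoxic solvent and applied to soil preemergence or to 1- to 4-leaf (2-18 cm) plants postemergence.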

corn (Zea mays) = settings: for Corn plant response rating: 8 g ai/ha
How it was run: as §1

[2] = test system: Russian thistle (Salsola iberica); settings: Preemergence
How it was run: as §1

[3] = test system: woolly cupgrass (Eriochloa villosa); settings: for Cupgrass, Woolly plant response rating: 8 g ai/ha
How it was run: as §1

[4] = test system: eastern black (E.B.) nightshade (Solanum ptycanthum); settings: Preemergence
How it was run: as §1

[5] = test system: blackgrass (Alopecurus myosuroides); settings: for Blackgrass plant response rating: 8 g ai/ha
How it was run: as §1

wild oat (Avena fatua) = settings: for Oat, Wild plant response rating: 8 g ai/ha
How it was run: as §1

[6] = test system: green foxtail (Setaria viridis); settings: for Foxtail, Green plant response rating: 8 g ai/ha
How it was run: as §1

[7] = test system: downy bromegrass (Bromus tectorum); settings: for Bromegrass, Downy plant response rating: 8 g ai/ha
How it was run: as §1

[8] = test system: wheat (Triticum aestivum); settings: for Wheat plant response rating: 8 g ai/ha
How it was run: as §1

[9] = test system: surinam grass (Brachiaria decumbens); settings: for Surinam Grass plant response rating: 8 g ai/ha
How it was run: as §1

[10] = test system: common (oilseed) sunflower (Helianthus annuus); settings: Preemergence
How it was run: as §1

[11] = test system: yellow nutsedge (Cyperus esculentus); settings: for Nutsedge, Yellow plant response rating: 8 g ai/ha
How it was run: as §1

[12] = test system: common ragweed (Ambrosia elation); settings: for Ragweed plant response rating: 8 g ai/ha
How it was run: as §1

[13] = Postemergence, 16 g ai/ha, scale 0 to 100
[14] = Postemergence, 31 g ai/ha, scale 0 to 100, 0 no effect, 100 complete control
[15] = Postemergence, 62 g ai/ha, scale 0 to 100, 0 no effect, 100 complete control
[16] = Preemergence, 16 g ai/ha, scale 0 to 100 (0 no effect, 100 complete control)
[17] = Preemergence, 31 g ai/ha, 0 to 100 scale, 0 no effect, 100 complete control
[18] = Preemergence, 62 g ai/ha, scale 0 to 100
[19] = 16 g ai/ha, scale 0 to 100 (0 no effect, 100 complete control)
[20] = 31 g ai/ha, 0 to 100 scale, 0 no effect, 100 complete control

Cc1cc(-c2ccc(Cl)cc2)nn1-c1c(OC(=O)CC(C)C)cnn(C)c1=O [Compound 37]
55: Plant response rating, Bromegrass, Downy [7, 13] | Plant response rating, Bromegrass, Downy [7, 14]
85: Oat, Wild plant response rating (wild oat (Avena fatua); postemergence, 0-100 scale) | Plant response rating, Foxtail, Green [6, 15] | Plant response rating, Surinam Grass [9, 16]
75: Plant response rating, Blackgrass [5, 13] | Plant response rating, Foxtail, Green [6, 13] | Plant response rating, Bromegrass, Downy [7, 15]
65: Plant response rating, Oat, Wild (wild oat (Avena fatua); [16]) | Surinam Grass plant response rating ([9]; Preemergence, scale 0 to 100)
45: Corn plant response rating (corn (Zea mays); postemergence, 0-100 scale)
90: Plant response rating, Russian Thistle ([2]; 62 g ai/ha, scale 0 to 100) | Cupgrass, Woolly plant response rating ([3]; postemergence, 0-100 scale) | Plant response rating, Blackgrass [5, 14] | Plant response rating, Blackgrass [5, 15]
5: Plant response rating, Wheat [8, 17]
70: Plant response rating, Wheat [8, 18]
100: Plant response rating, Corn (corn (Zea mays); [14]) | Plant response rating, Corn (corn (Zea mays); [15]) | Plant response rating, Cupgrass, Woolly [3, 14] | Plant response rating, Cupgrass, Woolly [3, 15] | Plant response rating, Cupgrass, Woolly [3, 18] | Plant response rating, Blackgrass [5, 16] | Plant response rating, Blackgrass [5, 17] | Plant response rating, Blackgrass [5, 18] | Plant response rating, Foxtail, Green [6, 17] | Plant response rating, Foxtail, Green [6, 18] | Plant response rating, Surinam Grass [9, 13] | Plant response rating, Surinam Grass [9, 15] | Plant response rating, Surinam Grass [9, 18]
95: Plant response rating, Corn (corn (Zea mays); [13]) | Plant response rating, Corn (corn (Zea mays); [17]) | Blackgrass plant response rating ([5]; Preemergence, scale 0 to 100) | Plant response rating, Oat, Wild (wild oat (Avena fatua); [13]) | Plant response rating, Oat, Wild (wild oat (Avena fatua); [14]) | Plant response rating, Oat, Wild (wild oat (Avena fatua); [18]) | Plant response rating, Wheat [8, 15] | Surinam Grass plant response rating ([9]; postemergence, 0-100 scale)
0: Cocklebur plant response rating ([1]; postemergence, 0-100 scale) | Plant response rating, Cocklebur [1, 13] | Plant response rating, Cocklebur [1, 14] | Plant response rating, Cocklebur [1, 15] | Plant response rating, Cocklebur [1, 16] | Plant response rating, Cocklebur [1, 17] | Plant response rating, Cocklebur [1, 18] | Cocklebur plant response rating ([1]; Preemergence, scale 0 to 100) | Plant response rating, Russian Thistle [2, 19] | Plant response rating, Russian Thistle [2, 20] | Russian Thistle plant response rating ([2]; 8 g ai/ha, scale 0 to 100) | Plant response rating, Nightshade, E. B. [4, 19] | Plant response rating, Nightshade, E. B. [4, 20] | Plant response rating, Nightshade, E. B. ([4]; 62 g ai/ha, scale 0 to 100) | Nightshade, E. B. plant response rating ([4]; 8 g ai/ha, scale 0 to 100) | Oat, Wild plant response rating (wild oat (Avena fatua); Preemergence, scale 0 to 100) | Bromegrass, Downy plant response rating ([7]; postemergence, 0-100 scale) | Bromegrass, Downy plant response rating ([7]; Preemergence, scale 0 to 100) | Plant response rating, Wheat [8, 16] | Wheat plant response rating ([8]; Preemergence, scale 0 to 100) | Plant response rating, Sunflower [10, 19] | Plant response rating, Sunflower [10, 20] | Sunflower plant response rating ([10]; 8 g ai/ha, scale 0 to 100) | Nutsedge, Yellow plant response rating ([11]; postemergence, 0-100 scale) | Plant response rating, Nutsedge, Yellow [11, 13] | Plant response rating, Nutsedge, Yellow [11, 14] | Plant response rating, Nutsedge, Yellow [11, 15] | Plant response rating, Nutsedge, Yellow [11, 16] | Plant response rating, Nutsedge, Yellow [11, 17] | Plant response rating, Nutsedge, Yellow [11, 18] | Nutsedge, Yellow plant response rating ([11]; Preemergence, scale 0 to 100) | Ragweed plant response rating ([12]; postemergence, 0-100 scale) | Plant response rating, Ragweed [12, 13] | Plant response rating, Ragweed [12, 14] | Plant response rating, Ragweed [12, 15] | Plant response rating, Ragweed [12, 16] | Plant response rating, Ragweed [12, 17] | Plant response rating, Ragweed [12, 18] | Ragweed plant response rating ([12]; Preemergence, scale 0 to 100)
40: Plant response rating, Corn (corn (Zea mays); [16]) | Corn plant response rating (corn (Zea mays); Preemergence, scale 0 to 100) | Foxtail, Green plant response rating ([6]; Preemergence, scale 0 to 100)
30: Plant response rating, Bromegrass, Downy [7, 16] | Plant response rating, Sunflower ([10]; 62 g ai/ha, scale 0 to 100)
80: Plant response rating, Oat, Wild (wild oat (Avena fatua); [17]) | Plant response rating, Foxtail, Green [6, 14] | Plant response rating, Bromegrass, Downy [7, 18]
50: Plant response rating, Cupgrass, Woolly [3, 16] | Plant response rating, Cupgrass, Woolly [3, 17] | Cupgrass, Woolly plant response rating ([3]; Preemergence, scale 0 to 100) | Plant response rating, Wheat [8, 13]
10: Blackgrass plant response rating ([5]; postemergence, 0-100 scale)
60: Foxtail, Green plant response rating ([6]; postemergence, 0-100 scale) | Plant response rating, Bromegrass, Downy [7, 17]
15: Wheat plant response rating ([8]; postemergence, 0-100 scale)
98: Plant response rating, Corn (corn (Zea mays); [18]) | Plant response rating, Cupgrass, Woolly [3, 13] | Plant response rating, Oat, Wild (wild oat (Avena fatua); [15]) | Plant response rating, Foxtail, Green [6, 16] | Plant response rating, Surinam Grass [9, 17]

Reference: patent US20100267561A1, “HERBICIDAL PYRIDAZINONE DERIVATIVES” (priority 2007, published 2010)
